How the values were obtained:
Type in all cases: in vivo, Swiss mice
mice [1] = test: Sodium barbital induced sleep time measurement
Method: (§1) Male and female Swiss mice having weights between about 18 to 22 g were used in the Examples provided below. Mice were housed in groups of 10 mice in a breeding room having a controlled temperature of about 22±2° C. Each group had free access to standard diet pellets and tap water.
(§2) Each of the extract combinations “BS” and “BY” produced in Example 1, was prepared for oral administration (PO) by ultrasonically dispersing each extract in distilled water containing about 0.5% Tween-80. Diazepam was also prepared for administration by ultrasonically dispersing the Diazepam in distilled water containing about 0.5% Tween-80.
(§3) Each of the BY, BS, and Diazepam compositions was administered orally to separate groups of mice at a dosage of 10 mL/kg body weight.
(§4) Dosages of the BS, BY, Diazepam compositions, and the sterile distilled water were administered orally to groups of mice, wherein each group comprised at least 10 mice.
Mice were administered 90 mg/kg sodium barbital via intraperitoneal injection (ip). Mice were then positioned on their back. The time that elapsed between administration of the sodium barbital and when each animal lost their righting reflex represented the time period between latency to the onset of sleep. The BS, BY, Diazepam, and the control treatments were administered to separate groups of mice. Each group of mice received their treatment about 7 days prior to the administration of the sodium barbital. The duration of sleeping time was calculated as the time interval between the loss of righting reflex to the time of recovery of this reflex. In studying the effects of the BS and BY extracts, the comparison of the durations of sleeping time between mice receiving the BS, BY, Diazepam treatments and the control treatments, was used as the main criterion of measurement.

mice [2] = test: Traction test
Method: as §1
Each of the extract combinations “BS” and “BY” produced in Example 1, was prepared for oral administration (PO) by ultrasonically dispersing each extract in distilled water containing about 0.5% Tween-80. Diazepam was also prepared for administration by ultrasonically dispersing the Diazepam in distilled water containing about 0.5% Tween-80. […]
The effects of the BS and BY compositions on inhibition of muscle coordination systems were evaluated using a traction test.
A wire having a diameter of about 1.6 mm and length of about 30 cm was stretched and secured horizontally at a height of about 30 cm above a surface. […] The duration of time each mouse clung to the wire was recorded up to a maximum of 60 seconds.
The test was performed about 60 minutes after the administration of one of the BS, BY, Diazepam, and the control compositions. […] The durations of clinging time measured for each group of mice were calculated using the mean value of triplicates for each mouse. If the duration of clinging time was greater than 60 seconds, the mouse was released from the wire, and the clinging time was recorded 60 seconds.

mice [3] = test: Inclined plane test
Method: as §1, §2
Each of the BY, BS, and Diazepam compositions was administered orally to separate groups of mice at a dosage of 10 mL/kg body weight. […]
Effects of the BS and BY compositions on the motor functions of mice were evaluated using an inclined plane test.
The inclined plane consisted of two rectangular steel boards connected at one end by a hinge. […] The maximum inclination of the plane at which a mouse could maintain itself in position for at least 5 seconds was recorded, and interpreted to represent the mouse's functional ability. The test was performed in triplicate for each mouse and the mean value was recorded as the maximum inclination.

mice [4] = test: Locomotor activity measurements (square arena); conditions: for Locomotor activity count: dose 1 mg/kg oral, mean ± SE, n = 10
Method: as §1, §2, §3, §4
The effects of the BS treatments and the BY treatments on inhibition of central nervous system were evaluated by measurements of the locomotor activities of mice.
Each mouse was placed in the center of a square arena having dimensions of approximately 60 cm×60 cm×35 cm. […] The arena was illuminated using red 25 W bulbs on the ceiling. The total number of squares each mouse entered in a 5 minute period was recorded by an overhead video camera. The camera was linked to a monitor and video recorder in an adjacent laboratory.
The locomotor activity of the mice were recorded both before and 30-minutes, 60-minutes, 120-minutes, and 180-minutes after administration of one of BS, BY, Diazepam, and the control.
All locomotor activity recordings were carried out with the observer unaware of the treatment that was administered to each of the mice.

[5] = dose 1.0 mg/kg oral, sodium barbital 90 mg/kg ip, mean ± SE, n = 10

CN1C(=O)CN=C(c2ccccc2)c2cc(Cl)ccc21 [Diazepam]
sodium barbital-induced sleeping time compared to the controls (in words) (mice [1]; dosage 1.0 mg/kg): significantly prolonged
Duration of Sleep (mice [1]; [5]): 72.8 ± 7.5 min
Sleep latency (mice [1]; [5]): 169.1 ± 12.4 s
Duration of clinging (mice [2]; dose 9 mg/kg oral, about 60 minutes after administration, maximum 60 seconds, mean ± SE, n = 10): 19.6 ± 4.9 s
durations of clinging time compared to control (in words) (mice [2]; doses of Table 3): markedly reduced
Maximum inclination (mice [3]; dose 9 mg/kg oral, position held at least 5 seconds, mean ± SE, n = 10): 51.5 ± 0.9 degrees
degrees of inclination compared to control (in words) (mice [3]; doses of Table 4): markedly reduced
effects on the locomotor activity of the mice (in words) (mice [4]; all doses and times of Table 2): None of the BS, BY and Diazepam compositions had any significant effects
Locomotor activity count (mice [4]; 0 minutes (before administration), squares entered in 5 min): 80.4 ± 6.7
Locomotor activity count (mice [4]; 30 minutes after administration): 68.9 ± 4.9
Locomotor activity count (mice [4]; 60 minutes after administration): 56.7 ± 3.8
Locomotor activity count (mice [4]; 120 minutes after administration): 52.6 ± 3.6
Locomotor activity count (mice [4]; 180 minutes after administration): 47.6 ± 3.4

Source: patent US7968128B2, “Plant extract compositions for affecting sleep” (VIVA Pharmaceutical Inc., priority 2008, dated 2011)
